In one assay the target is Bcl-2 WT (Homo sapiens, UniProt P10415). Description: Bcl-2 WT inhibition, fluorescence polarization (Flu-BIM tracer) binding assay. The settings on record: FP; 20 nM Bcl2, 5 nM Flu-BIM, 1 h incubation; read-out: Bcl-2 w.t. (FP).
The next assay relates to MV-4-11 cells. The assay can be described thus: CCK-8 cell viability assay in MV-4-11 cells. The assay is classed as cell-based. The settings on record: Homo sapiens, MV4-11, 72 h, 10% FBS, 3 days. As for the experimental part:
MV-4-11 cells were obtained from University of Michigan. Cells were maintained in the RPMI-1640 medium with 10% FBS and 1% P/S at 37° C. and an atmosphere of 5% CO2.
• The effect of representative Compounds of the Disclosure on cell viability was determined using Cell Counting Kit-8 (CCK-8) assay (Shanghai Life iLab Biotech) according to the manufacturer's instructions. Each tested compound was serially diluted in culture medium, and 100 μL of the compound dilution was added to the corresponding well of the cell plate. 100 μL of MV-4-11 cell suspension (20000 cells/well) in culture medium were seeded into 96-well plates. The cells were incubated at 37° C. in an atmosphere of 5% CO2 for 3 days. At the end of 3 days, 20 μL of CCK-8 solution was added to each well of the plate and incubated for 1-4 hours. The plates were read at 450 nm on the Biotek plate reader. The readings were normalized to the vehicle cells, and the IC50 was calculated using GraphPad Prism 8 software.

A further assay deals with RS4; 11Bcl-2-G101V cells. The assay can be described thus: CellTiter-Glo (CTG) cell viability assay in RS4;11-Bcl-2-G101V cells. The settings on record: 72 h, 10% FBS, 3 days. The format is cell-based. As for the experimental part: RS4; 11Bcl-2-G101V, RS4; 11Bcl-2-D103E, RS4; 11Bcl-2-V156D and RS4; 11Bcl-2-G101V-D103E cells were obtained from Cobioer Biosciences. Cells were maintained in the RPMI-1640 medium with 10% FBS, 1% P/S and puromycin (1 μg/mL) at 37° C. and an atmosphere of 5% CO2.
• The effect of representative Compounds of the Disclosure on cell viability was determined using CellTiter-Glo® (CTG) luminescent cell viability assay (Promega, USA) according to the manufacturer's instructions. 95 μL of cell suspension (10000 cells/well) in culture medium were seeded into 96-well plates and cultured 4 hours. Each tested compound was serially diluted in blank culture medium, and 5 μL of the compound dilution was added to the corresponding well of the cell plate. After the addition of the tested compound, the cells were incubated at 37° C. in an atmosphere of 5% CO2 for 3 days. At the end of 3 days, 30 μL of CTG solution was added to each well of the plate and mix contents for 2 minutes on an orbital shaker. Allow the plate to incubate at room temperature for 15 mins to stabilize signal and record RLU on the Biotek plate reader. The readings were normalized to the vehicle cells, and the IC50 was calculated using GraphPad Prism 8 software.

Bcl-2 WT, sequence (P10415 whole entry): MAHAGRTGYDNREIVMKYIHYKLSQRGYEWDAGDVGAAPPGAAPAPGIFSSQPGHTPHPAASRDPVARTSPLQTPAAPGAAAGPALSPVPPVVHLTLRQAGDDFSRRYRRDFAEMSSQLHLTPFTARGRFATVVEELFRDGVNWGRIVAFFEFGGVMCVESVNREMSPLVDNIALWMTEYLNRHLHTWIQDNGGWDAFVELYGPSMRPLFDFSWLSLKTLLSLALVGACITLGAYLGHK

`CC1(C)CCC(CN2CCN(c3ccc(C(=O)NS(=O)(=O)c4ccc(NC[C@H]5COCCO5)c([N+](=O)[O-])c4)c(Oc4cnc5[nH]ccc5c4)c3)CC2)=C(c2cc(Nc3ncccn3)cs2)C1` [Example 19, (S)—N-((4-(((1,4-dioxan-2-yl)methyl)amino)-3-nitrophenyl)sulfonyl)-2-((1H-pyrrolo[2,3-b]pyridin-5-yl)oxy)-4-(4-((4,4-dimethyl-2-(4-(pyrimidin-2-ylamino)thiophen-2-yl)cyclohex-1-en-1-yl)methyl)piperazin-1-yl)benzamide]: the IC50 worked out at 24.6 nM at Bcl-2 WT, 138 nM in the assay on MV-4-11 cells and 980 nM in the assay with RS4; 11Bcl-2-G101V cells.
In the same order, the values of `CC1(C)CCC(CN2CCN(c3ccc(C(=O)NS(=O)(=O)c4ccc(NC[C@H]5CC[C@](C)(O)CC5)c([N+](=O)[O-])c4)c(Oc4cnc5[nH]ccc5c4)c3)CC2)=C(c2cc(-c3c(F)cc(C(C)(O)C4CC4)cc3F)cs2)C1` (stereo partly drawn) [Example 69, 2-((1H-pyrrolo[2,3-b]pyridin-5-yl)oxy)-4-(4-((2-(4-(4-(1-cyclopropyl-1-hydroxyethyl)-2,6-difluorophenyl)thiophen-2-yl)-4,4-dimethylcyclohex-1-en-1-yl)methyl)piperazin-1-yl)-N-((4-((((1r,4r)-4-hydroxy-4-methylcyclohexyl)methyl)amino)-3-nitrophenyl)sulfonyl)benzamide] are 24.8 nM, 473 nM and 300 nM.
In the same order, the values of `CC1(C)CCC(CN2CCN(c3ccc(C(=O)NS(=O)(=O)c4ccc(NC[C@H]5CC[C@](C)(O)CC5)c([N+](=O)[O-])c4)c(Oc4cnc5[nH]ccc5c4)c3)CC2)=C(c2cc3c(s2)CCN(c2ccc(F)cc2)C3)C1` [Example 16, 2-((1H-pyrrolo[2,3-b]pyridin-5-yl)oxy)-4-(4-((2-(5-(4-fluorophenyl)-4,5,6,7-tetrahydrothieno[3,2-c]pyridin-2-yl)-4,4-dimethylcyclohex-1-en-1-yl)methyl)piperazin-1-yl)-N-((4-((((1r,4r)-4-hydroxy-4-methylcyclohexyl)methyl)amino)-3-nitrophenyl)sulfonyl)benzamide] are 42 nM, 445 nM and 5630 nM.
For the compound `CC1(C)CCC(CN2CCN(c3ccc(C(=O)NS(=O)(=O)c4ccc(NC[C@H]5CC[C@](C)(O)CC5)c([N+](=O)[O-])c4)c(Oc4cnc5[nH]ccc5c4)c3)CC2)=C(c2cc(-c3c(F)cc(C(C)(C)C(=O)O)cc3F)cs2)C1` [Example 82, 2-(4-(5-(2-((4-(3-((1H-pyrrolo[2,3-b]pyridin-5-yl)oxy)-4-(((4-((((1r,4r)-4-hydroxy-4-methylcyclohexyl)methyl)amino)-3-nitrophenyl)sulfonyl)carbamoyl)phenyl)piperazin-1-yl)methyl)-5,5-dimethylcyclohex-1-en-1-yl)thiophen-3-yl)-3,5-difluorophenyl)-2-methylpropanoic acid], the values for the IC50 at Bcl-2 WT, with MV-4-11 cells and with RS4; 11Bcl-2-G101V cells were 18.1 nM, 114 nM and 1270 nM, respectively.
In the same order, the values of `CC1(C)CCC(CN2CCN(c3ccc(C(=O)NS(=O)(=O)c4ccc(NC[C@H]5CC[C@](C)(O)CC5)c([N+](=O)[O-])c4)c(Oc4cnc5[nH]ccc5c4)c3)CC2)=C(c2cc(-c3ccc(C(C)(C)O)c(F)c3)cs2)C1` [Example 71, 2-((1H-pyrrolo[2,3-b]pyridin-5-yl)oxy)-4-(4-((2-(4-(3-fluoro-4-(2-hydroxypropan-2-yl)phenyl)thiophen-2-yl)-4,4-dimethylcyclohex-1-en-1-yl)methyl)piperazin-1-yl)-N-((4-((((1r,4r)-4-hydroxy-4-methylcyclohexyl)methyl)amino)-3-nitrophenyl)sulfonyl)benzamide] are 15.4 nM, 12 nM and 330 nM.
The matching figures for `CC1(C)CCC(CN2CCN(c3ccc(C(=O)NS(=O)(=O)c4ccc(NC[C@H]5CC[C@](C)(O)CC5)c([N+](=O)[O-])c4)c(Oc4cnc5[nH]ccc5c4)c3)CC2)=C(c2cc(-c3ccc4c(c3)CCC4(C)O)cs2)C1` (stereo partly drawn) [Example 79, 2-((1H-pyrrolo[2,3-b]pyridin-5-yl)oxy)-4-(4-((2-(4-(1-hydroxy-1-methyl-2,3-dihydro-1H-inden-5-yl)thiophen-2-yl)-4,4-dimethylcyclohex-1-en-1-yl)methyl)piperazin-1-yl)-N-((4-((((1r,4r)-4-hydroxy-4-methylcyclohexyl)methyl)amino)-3-nitrophenyl)sulfonyl)benzamide]: 15.8 nM, 11 nM and 170 nM.
For the compound `CC1(C)CCC(CN2CCN(c3ccc(C(=O)NS(=O)(=O)c4ccc(NC[C@H]5CC[C@](C)(O)CC5)c([N+](=O)[O-])c4)c(Oc4cnc5[nH]ccc5c4)c3)CC2)=C(c2cc(-c3cc(F)c(F)c(F)c3)cs2)C1` [Example 45, 2-((1H-pyrrolo[2,3-b]pyridin-5-yl)oxy)-4-(4-((4,4-dimethyl-2-(4-(3,4,5-trifluorophenyl)thiophen-2-yl)cyclohex-1-en-1-yl)methyl)piperazin-1-yl)-N-((4-((((1r,4r)-4-hydroxy-4-methylcyclohexyl)methyl)amino)-3-nitrophenyl)sulfonyl)benzamide], the IC50 on Bcl-2 WT was 33.8 nM; in the assay on MV-4-11 cells, 57 nM; in the assay with RS4; 11Bcl-2-G101V cells it was 1680 nM.
The matching figures for `CC1(C)CCC(CN2CCN(c3ccc(C(=O)NS(=O)(=O)c4ccc(NC[C@H]5COCCO5)c([N+](=O)[O-])c4)c(Oc4cnc5[nH]ccc5c4)c3)CC2)=C(c2cc(NC(=O)c3ccccc3)cs2)C1` [Example 18, (S)—N-((4-(((1,4-dioxan-2-yl)methyl)amino)-3-nitrophenyl)sulfonyl)-2-((1H-pyrrolo[2,3-b]pyridin-5-yl)oxy)-4-(4-((2-(4-benzamidothiophen-2-yl)-4,4-dimethylcyclohex-1-en-1-yl)methyl)piperazin-1-yl)benzamide]: 37.5 nM, 323 nM and 2040 nM.
The matching figures for `CC1(C)CCC(CN2CCN(c3ccc(C(=O)NS(=O)(=O)c4ccc(NC[C@H]5CC[C@](C)(O)CC5)c([N+](=O)[O-])c4)c(Oc4cnc5[nH]ccc5c4)c3)CC2)=C(c2cc(-c3cccc(C(C)(C)O)c3)cs2)C1` [Example 70, 2-((1H-pyrrolo[2,3-b]pyridin-5-yl)oxy)-N-((4-((((1r,4r)-4-hydroxy-4-methylcyclohexyl)methyl)amino)-3-nitrophenyl)sulfonyl)-4-(4-((2-(4-(3-(2-hydroxypropan-2-yl)phenyl)thiophen-2-yl)-4,4-dimethylcyclohex-1-en-1-yl)methyl)piperazin-1-yl)benzamide]: 19.8 nM, 95 nM and 1460 nM.
In the same order, the values of `CC1(C)CCC(CN2CCN(c3ccc(C(=O)NS(=O)(=O)c4ccc(NC[C@H]5COCCO5)c([N+](=O)[O-])c4)c(Oc4cnc5[nH]ccc5c4)c3)CC2)=C(c2cc(CN3CCC(F)(F)CC3)cs2)C1` [Example 32, (S)—N-((4-(((1,4-dioxan-2-yl)methyl)amino)-3-nitrophenyl)sulfonyl)-2-((1H-pyrrolo[2,3-b]pyridin-5-yl)oxy)-4-(4-((2-(4-((4,4-difluoropiperidin-1-yl)methyl)thiophen-2-yl)-4,4-dimethylcyclohex-1-en-1-yl)methyl)piperazin-1-yl)benzamide] are 15.9 nM, 80 nM and 560 nM.

The record behind these values is US12577245B2, “Sulfonyl benzamide derivatives as Bcl-2 inhibitors” (ASCENTAGE PHARMA (SUZHOU) CO., LTD., priority 2021, dated 2026).
